In patent US9216220B2, “Compositions and methods for thermo-sensitive nanoparticles and magnetic nanoparticles” (BOARD OF REGENTS, THE UNIVERSITY OF TEXAS SYSTEM, priority 2008, dated 2015):

Tested on: Prostate cancer cells (i.e., JHU31)
Assay: Cancer cell viability, MTS assay, DOX-loaded nanoparticles
Type: cell-based
Settings: 37° C., 24 hours; nanoparticles 500 μg/ml
Method: In order to investigate the pharmacological activity of the in vitro released DOX from the functionalized copolymer magnetic nanoparticles, cancer cell viability was conducted using MTS assays (Promega) according to the manufacturer's instruction. Prostate cancer cells (i.e., JHU31) were cultured to confluence, harvested by trypsinization, and dispersed in RPMI supplemented with 10% serum and 1% penicillin-streptomycin. Cells were seeded at a density of approximately 10,000 cells/well in 24-well plates for 24 hours at 37° C., and then were then incubated with nanoparticles, DOX-loaded nanoparticles, and free DOX. The concentration of functionalized copolymer magnetic nanoparticles and DOX-loaded functionalized copolymer magnetic nanoparticles was 500 μg/ml. This nanoparticle concentration was selected according to drug release results from the nanoparticles indicated above and the optimal inhibition dose of DOX on prostate cancer cell growth studies. The prostate cancer cells were incubated with each group at 37° C., 41° C., and temperature cycles between 37° C. and 41° C. (one hour at each temperature for one cycle) for 24 hours.

Structure (SMILES): COc1cccc2c1C(=O)c1c(O)c3c(c(O)c1C2=O)C[C@@](O)(C(=O)CO)C[C@@H]3O[C@H]1C[C@H](N)[C@H](O)[C@H](C)O1 [DOX, doxorubicin]
- cell viability in comparison to the control: 20%
